Reference: paper PMC9550789, “Identification and biochemical characterization of a novel N-acetylglucosamine kinase in Saccharomyces cerevisiae” (Scientific Reports, 2022)

T1: Hxk1 (Saccharomyces cerevisiae, UniProt P04806)
T1 sequence (P04806 1-485): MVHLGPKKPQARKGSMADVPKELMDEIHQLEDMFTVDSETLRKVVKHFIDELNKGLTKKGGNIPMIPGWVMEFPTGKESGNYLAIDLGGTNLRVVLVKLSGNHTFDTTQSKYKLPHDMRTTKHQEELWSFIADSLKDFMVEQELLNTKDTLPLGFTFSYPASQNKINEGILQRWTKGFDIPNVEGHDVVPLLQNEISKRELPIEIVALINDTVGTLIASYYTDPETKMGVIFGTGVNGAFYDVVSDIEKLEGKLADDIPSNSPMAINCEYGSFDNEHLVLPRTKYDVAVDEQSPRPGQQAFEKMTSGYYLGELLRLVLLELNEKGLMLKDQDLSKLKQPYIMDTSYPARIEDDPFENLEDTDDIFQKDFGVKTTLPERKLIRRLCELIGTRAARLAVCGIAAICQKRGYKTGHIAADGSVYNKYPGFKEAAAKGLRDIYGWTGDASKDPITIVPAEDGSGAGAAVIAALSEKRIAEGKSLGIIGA

T2: Glk1 (Saccharomyces cerevisiae, UniProt P17709)
T2 sequence (P17709 2-500): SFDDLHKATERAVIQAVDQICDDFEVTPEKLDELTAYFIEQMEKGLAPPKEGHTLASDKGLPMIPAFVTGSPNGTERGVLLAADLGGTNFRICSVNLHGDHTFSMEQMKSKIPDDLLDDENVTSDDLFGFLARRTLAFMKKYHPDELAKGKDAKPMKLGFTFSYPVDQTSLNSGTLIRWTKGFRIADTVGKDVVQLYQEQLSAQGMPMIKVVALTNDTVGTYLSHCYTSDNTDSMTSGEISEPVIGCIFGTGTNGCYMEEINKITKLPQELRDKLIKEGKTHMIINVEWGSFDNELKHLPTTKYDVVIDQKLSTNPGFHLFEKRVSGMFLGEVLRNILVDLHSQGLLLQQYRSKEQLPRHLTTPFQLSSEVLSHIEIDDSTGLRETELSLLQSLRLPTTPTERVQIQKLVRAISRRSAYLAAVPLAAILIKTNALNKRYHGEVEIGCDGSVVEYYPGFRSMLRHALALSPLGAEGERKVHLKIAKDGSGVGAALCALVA

T3: Emi2 (Saccharomyces cerevisiae, UniProt Q04409)
T3 sequence (Q04409 2-500): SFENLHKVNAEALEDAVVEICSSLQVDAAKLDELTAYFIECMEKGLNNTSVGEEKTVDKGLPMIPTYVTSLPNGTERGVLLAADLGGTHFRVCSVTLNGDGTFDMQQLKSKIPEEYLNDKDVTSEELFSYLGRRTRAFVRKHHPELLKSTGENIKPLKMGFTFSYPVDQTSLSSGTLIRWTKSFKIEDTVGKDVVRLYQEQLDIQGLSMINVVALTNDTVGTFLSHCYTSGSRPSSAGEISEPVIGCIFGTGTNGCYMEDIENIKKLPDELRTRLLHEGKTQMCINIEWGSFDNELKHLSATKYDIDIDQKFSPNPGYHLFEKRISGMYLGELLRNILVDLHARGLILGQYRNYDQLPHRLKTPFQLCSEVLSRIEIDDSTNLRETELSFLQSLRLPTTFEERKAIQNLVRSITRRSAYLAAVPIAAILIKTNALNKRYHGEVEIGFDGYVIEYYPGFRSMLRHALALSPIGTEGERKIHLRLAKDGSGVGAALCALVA

T4: Hxk2 (Saccharomyces cerevisiae, UniProt P04807)
T4 sequence (P04807 2-486): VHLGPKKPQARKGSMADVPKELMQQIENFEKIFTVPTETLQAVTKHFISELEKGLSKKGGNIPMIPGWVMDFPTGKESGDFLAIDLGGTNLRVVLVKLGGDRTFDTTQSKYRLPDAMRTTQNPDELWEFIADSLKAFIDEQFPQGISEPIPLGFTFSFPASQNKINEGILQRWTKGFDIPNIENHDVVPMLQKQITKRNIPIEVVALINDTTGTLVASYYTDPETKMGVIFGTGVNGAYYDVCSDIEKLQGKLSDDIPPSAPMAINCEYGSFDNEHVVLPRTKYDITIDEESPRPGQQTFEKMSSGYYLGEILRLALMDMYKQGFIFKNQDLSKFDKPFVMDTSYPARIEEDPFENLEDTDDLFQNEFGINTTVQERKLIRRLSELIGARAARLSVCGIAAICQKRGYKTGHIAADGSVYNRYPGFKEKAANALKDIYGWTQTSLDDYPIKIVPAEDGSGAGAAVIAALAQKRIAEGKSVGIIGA


Tests used:
Hxk1 = target: T1, Hxk1; assay: phosphorylation of glucose; type: biochemical; settings: sugar phosphorylation with ATP; details in supplement
Glk1 = target: T2, Glk1; assay: phosphorylation of glucose; type: biochemical; settings: sugar phosphorylation with ATP; details in supplement
Emi2 = target: T3, Emi2; assay: phosphorylation of glucose; type: biochemical; settings: sugar phosphorylation with ATP; details in supplement
Hxk2 = target: T4, Hxk2; assay: phosphorylation of glucose; type: biochemical; settings: sugar phosphorylation with ATP; details in supplement
[1] = substrate: Nc1ncnc2c1ncn2[C@@H]1O[C@H](COP(=O)(O)OP(=O)(O)OP(=O)(O)O)[C@@H](O)[C@H]1O; assay: pyruvate kinase / lactate dehydrogenase coupled assay, ADP formation; type: biochemical, Saccharomyces cerevisiae; settings: GlcNAc as sugar substrate (concentration not given)

| Molecule | phosphorylation of glucose (Hxk1) | phosphorylation of glucose (Glk1) | phosphorylation of glucose (Emi2) | phosphorylation of glucose (Hxk2) | Km [1] | kcat [1] |
| --- | --- | --- | --- | --- | --- | --- |
| OC[C@H]1OC(O)[C@H](O)[C@@H](O)[C@@H]1O (stereo partly drawn) [glucose] | all these hexokinases clearly exhibited the activity for Glc | all these hexokinases clearly exhibited the activity for Glc | all these hexokinases clearly exhibited the activity for Glc | all these hexokinases clearly exhibited the activity for Glc | – | – |
| Ngk1 (YLR446Wp) (Saccharomyces cerevisiae S288C) (protein, full-length ORF, 433 residues, about 50 kDa predicted, N-terminal His6-tag (pCold II), E. coli BL21 (DE3), HisTrap purified; tag removal not mentioned) MTIESTLARELESLILPADSIVNVVDQFQEELLSRLQTNTISMLPQCLVPDKRSRWNPEDKILTIDFGGTRLKFAIISLPQIVIEYNDAFELTYNIVDSNFFNQIIYTICTRLAANGYIKKKNESSEASKFFVSVTFSFPLNPEGEVVAMGKGFVMTDTLQGSTVKQLIQSSFHRIISENIEEFFCTMNVCHVINDAIAVSLTSKFICENDSISLIIGTGTNACFEVPYGYLPPFKRDALRETLPSSYNKETLNFKHVLINSEIGFIGKNVIALQPFDIHGAISYEMPLECVTSGKWLPLSLKNILLQYNIIPKNFPVEFNGELVCQLAEDCTNAWFENEHYALICQIARLLIKRAAFYVAAIVQAIDIITGCKNYNFIHIGYVGSFLHNSNFYREQIKYYSSIHIKLQFLNHSNLLGAAIATYLNKSDNQVQ | – | – | – | – | 1200 µM | 3.4 s⁻¹ |
